Data reported in PMC5201331, “Subchronic Toxicities of HZ1006, a Hydroxamate-Based Histone Deacetylase Inhibitor, in Beagle Dogs and Sprague-Dawley Rats” (International Journal of Environmental Research and Public …, 2016).

Assays:
[1] = Toxicokinetics in Beagle dogs; format: in vivo; details: for accumulation coefficient R: after 28 days compared with d1; for Tmax / Cmax / half-life / AUC(0-inf): both sexes, Beagle, dog
Experimental: (§1) HZ1006 was administered orally to dogs (four/sex/group) at doses of 80, 40, 20, 5 and 0 (control) mg/kg/day, and the dosage volume was 2 mL/kg. The dogs received test doses with the exact amounts on a weekly basis based on current body weights. […] The other dogs in the above groups were dissected on the planned days. For the other groups, half of the dogs were anatomized on d28 and the remaining half on d42.
The dogs’ blood samples were obtained on the 1st day, the 14th day and the last day (d28) of dosage for plasma HZ1006 content analyses at 0 (1st day only), 1/6, 0.5, 1, 2, 4, 8, 12 and 24 h after dosing, and the blood samples of the rats were acquired on the 1st day and 28th day at the same time as those of the dogs, which were handled and analyzed according to the procedure reported by Zhang et al..

[2] = Toxicokinetics in SD rats; format: in vivo, Sprague-Dawley (SD) rats; details: for AUC(0-inf) / Cmax / Tmax / half-life: both sexes, Sprague-Dawley, rat, plasma, po, SD rats; for accumulation coefficient R: rats, after 28 days compared with d1
Experimental: The rats that were judged suitable for the subchronic toxicity study were randomly divided into four groups (10 rats/sex/group). The rats received the test sample by gavage once daily for 28 days. HZ1006 was administered to the rats at doses of 120, 60, 20 and 0 (control) mg/kg, and the dosage volume was 5 mL/kg. Half of the 80 rats (half male and half female) were selected randomly according to body weight and dissected at d28. The remaining rats were dissected at […]. The dogs' blood samples were obtained on the 1st day, the 14th day and the last day (d28) of dosage for plasma HZ1006 content analyses at 0 (1st day only), 1/6, 0.5, 1, 2, 4, 8, 12 and 24 h after dosing, and the blood samples of the rats were acquired on the 1st day and 28th day at the same time as those of the dogs, which were handled and analyzed according to the procedure reported by Zhang et al..

[3] = Subchronic toxicity test in Beagle dogs: overall (NOAEL, urinalysis, ECG); format: in vivo; details: both sexes, beagle, dog, in vivo, daily oral administration, 28 days, read-out: NOAEL (No Observed Adverse Effect Level)
Experimental: as §1
(§2) Clinical symptoms and mortality were examined at least twice daily during the 42-day period, which included any changes in reaction to treatment, behavior, illness, food consumption, and body weight. Breathing rates, rectal temperature and pupil changes in the Beagle dogs were assessed once every 2 weeks.
(§3) The parameters of the dogs’ ECG included the Heart rate, Time at R, P Duration, P-R interval, T Duration, QRS Durations, Q-T Intervals and ST Segment, which were examined by an ECG6511 ECG instrument (manufactured by Shanghai Kohden Medical Electronic Instrument Corp., Shanghai, China) on d0 (twice), d14, d28 and d42 using the II limb lead method.
(§4) A Micro AUTION MA-4260 Autoanalyzer from Arkray Global Business, Inc. (kyoto, Japan), was used to analyze the animal urine samples. Parameters such as pH, specific gravity, nitrites, leukocytes, glucose, protein, urobilinogen, ketones, occult blood, bilirubin, and hemoglobin were tested.

Beagle dogs = experiment: as above; format: in vivo
Experimental: as §1, §2, §3, §4

[4] = plasma, po, 5 mg/kg/day, 5 mg/kg/day oral, 14 days
[5] = plasma, po, 5 mg/kg/day, 5 mg/kg/day oral, 28 days
[6] = plasma, po, 5 mg/kg/day, 5 mg/kg/day oral, single
[7] = plasma, po, 20 mg/kg/day, 20 mg/kg/day oral, 14 days
[8] = plasma, po, 20 mg/kg/day, 20 mg/kg/day oral, 28 days
[9] = plasma, po, 20 mg/kg/day, 20 mg/kg/day oral, single
[10] = plasma, po, 40 mg/kg/day, 40 mg/kg/day oral, 14 days
[11] = plasma, po, 40 mg/kg/day, 40 mg/kg/day oral, 28 days
[12] = plasma, po, 40 mg/kg/day, 40 mg/kg/day oral, single
[13] = plasma, po, 80 mg/kg/day, 80 mg/kg/day oral, 14 days
[14] = plasma, po, 80 mg/kg/day, 80 mg/kg/day oral, 28 days
[15] = plasma, po, 80 mg/kg/day, 80 mg/kg/day oral, single
[16] = 20 mg/kg/day, 20 mg/kg/day oral, 28 days
[17] = 20 mg/kg/day, 20 mg/kg/day oral, single
[18] = 60 mg/kg/day, 60 mg/kg/day oral, 28 days
[19] = 60 mg/kg/day, 60 mg/kg/day oral, single
[20] = 120 mg/kg/day, 120 mg/kg/day oral, 28 days
[21] = 120 mg/kg/day, 120 mg/kg/day oral, single

CCCCCCCNc1cc(/C=C/C(=O)NO)ccc1OCCN(CC)CC [HZ1006]
accumulation coefficient R ([1]; 5 mg/kg/day oral): 1.3 ± 1.2
accumulation coefficient R ([1]; 80 mg/kg/day oral): 1.2 ± 0.9
Tmax ([1]; in vivo, 20 mg/kg/day oral, 28 days): 3.17 ± 1.33 h
Cmax ([1]; in vivo, 40 mg/kg/day oral, single): 456 ± 376 ng/mL
half-life ([1]; in vivo, 80 mg/kg/day oral, 28 days): 7.56 ± 3.27 h
AUC(0-inf) [1, 4]: 199 ± 69.6 ng·h/mL
Cmax [1, 4]: 30.1 ± 14.2 ng/mL
Tmax [1, 4]: 4.2 ± 2.01 h
half-life [1, 4]: 4.75 ± 1.23 h
AUC(0-inf) [1, 5]: 616 ± 242 ng·h/mL
Cmax [1, 5]: 65.7 ± 42 ng/mL
Tmax [1, 5]: 4.33 ± 2.94 h
half-life [1, 5]: 7.34 ± 1.02 h
AUC(0-inf) [1, 6]: 193 ± 64.6 ng·h/mL
Cmax [1, 6]: 35.6 ± 15.1 ng/mL
Tmax [1, 6]: 3.67 ± 1.52 h
half-life [1, 6]: 4.4 ± 0.61 h
AUC(0-inf) [1, 7]: 620 ± 249 ng·h/mL
Cmax [1, 7]: 68.1 ± 22.8 ng/mL
Tmax [1, 7]: 4 ± 2.19 h
half-life [1, 7]: 5.21 ± 0.53 h
AUC(0-inf) [1, 8]: 389 ± 104 ng·h/mL
Cmax [1, 8]: 55.2 ± 21.8 ng/mL
half-life [1, 8]: 5.35 ± 0.73 h
AUC(0-inf) [1, 9]: 1190 ± 320 ng·h/mL
Cmax [1, 9]: 139 ± 73.4 ng/mL
Tmax [1, 9]: 3.5 ± 2.51 h
half-life [1, 9]: 5.54 ± 1.53 h
AUC(0-inf) [1, 10]: 1020 ± 977 ng·h/mL
Cmax [1, 10]: 199 ± 175 ng/mL
Tmax [1, 10]: 1.9 ± 1.34 h
half-life [1, 10]: 7.34 ± 3.82 h
AUC(0-inf) [1, 11]: 928 ± 298 ng·h/mL
Cmax [1, 11]: 162 ± 102 ng/mL
Tmax [1, 11]: 2.2 ± 1.1 h
half-life [1, 11]: 5.08 ± 1.04 h
AUC(0-inf) [1, 12]: 2500 ± 1490 ng·h/mL
Tmax [1, 12]: 2.7 ± 2.7 h
half-life [1, 12]: 6.93 ± 3.03 h
AUC(0-inf) [1, 13]: 1550 ± 758 ng·h/mL
Cmax [1, 13]: 174 ± 123 ng/mL
Tmax [1, 13]: 4.43 ± 3.53 h
half-life [1, 13]: 7.23 ± 3.45 h
AUC(0-inf) [1, 14]: 1820 ± 570 ng·h/mL
Cmax [1, 14]: 180 ± 83.4 ng/mL
Tmax [1, 14]: 4.6 ± 3.29 h
AUC(0-inf) [1, 15]: 3870 ± 2630 ng·h/mL
Cmax [1, 15]: 365 ± 257 ng/mL
Tmax [1, 15]: 3.5 ± 2.51 h
half-life [1, 15]: 6.74 ± 2.2 h
AUC(0-inf) [2, 16]: 32.7 ± 14.9 ng·h/mL
Cmax [2, 16]: 12.9 ± 9.5 ng/mL
Tmax [2, 16]: 0.34 ± 0.18 h
half-life [2, 16]: 7.32 ± 2.93 h
AUC(0-inf) [2, 17]: 8 ± 9.1 ng·h/mL
Cmax [2, 17]: 7.5 ± 7.2 ng/mL
Tmax [2, 17]: 0.86 ± 1.54 h
half-life [2, 17]: 0.6 ± 0.37 h
AUC(0-inf) [2, 18]: 114 ± 30.9 ng·h/mL
Cmax [2, 18]: 19.7 ± 3.3 ng/mL
Tmax [2, 18]: 0.28 ± 0.17 h
half-life [2, 18]: 7.57 ± 2.31 h
AUC(0-inf) [2, 19]: 39.1 ± 15 ng·h/mL
Cmax [2, 19]: 13.3 ± 5.5 ng/mL
Tmax [2, 19]: 0.5 h
half-life [2, 19]: 6.83 ± 2.69 h
AUC(0-inf) [2, 20]: 447 ± 282 ng·h/mL
Cmax [2, 20]: 57.5 ± 26.1 ng/mL
Tmax [2, 20]: 1.92 ± 3.07 h
half-life [2, 20]: 7.03 ± 1.9 h
AUC(0-inf) [2, 21]: 69.9 ± 22.9 ng·h/mL
Cmax [2, 21]: 20.4 ± 3.8 ng/mL
Tmax [2, 21]: 0.45 ± 0.13 h
half-life [2, 21]: 6.51 ± 1.62 h
accumulation coefficient R ([2]; 20 mg/kg/day oral): 16.8 ± 21.6
accumulation coefficient R ([2]; 60 mg/kg/day oral): 3.2 ± 1.2
accumulation coefficient R ([2]; 120 mg/kg/day oral): 6.3 ± 2.8
NOAEL at 28 days [3]: 5 mg/kg
ECG examination (Beagle dogs; 5-80 mg/kg/day oral): no dose-related changes
urinalysis (Beagle dogs; 5-80 mg/kg/day oral): no dose-related changes
minimum toxic dose (Beagle dogs; daily oral administration, 28 days): 20 mg/kg
